Assay results reported in US10532054B2, “Compounds for the prevention and treatment of cardiovascular diseases” (Resverlogix Corp., priority 2007, dated 2020).
Where a name gives a salt, the structure may show the parent alone.

Molecule `COc1cc2nc(-c3cc(C)c(OCC(N)=O)c(C)c3)[nH]c(=O)c2cc1OC` [Example 55, 2-(4-(6,7-dimethoxy-4-oxo-3,4-dihydroquinazolin-2-yl)-2,6-dimethylphenoxy)acetamide] has a melting point of 354 to 356 °C. For `COc1cc2nc(-c3cc(C)c(OCCO)c(C)c3)[nH]c(=O)c2cc1OC` [Example 58, 2-(4-(2-hydroxyethoxy)-3,5-dimethylphenyl)-6,7-dimethoxyquinazolin-4(3H)-one], the melting point was > 300 °C. `COc1cc(OC)c2cnc(-c3cc(C)c(O)c(C)c3)cc2c1` (as salt: hydrochloride) [Example 18, 4-(6,8-dimethoxyisoquinolin-3-yl)-2,6-dimethylphenol] showed a melting point of 255 to 256 °C. `COc1cc2nc(-c3ccc(N(CCO)CCO)cc3)[nH]c(=O)c2cc1OC` [Example 47, 2-(4-(bis(2-hydroxyethyl)amino)phenyl)-6,7-dimethoxyquinazolin-4(3H)-one] gave a melting point of 268 to 270 °C. `COc1cc(OC)c2cnc(-c3cc(C)c(OCCN4CCOCC4)c(C)c3)cc2c1` (as salt: HCl) [Example 22, 4-(2-(4-(6,8-dimethoxyisoquinolin-3-yl)-2,6-dimethylphenoxy)ethyl)morpholine] showed a melting point of 239 to 240 °C. Molecule `COc1cc(OC)c2c(=O)[nH]c(-c3cc(C(C)(C)C)c(O)c(C(C)(C)C)c3)nc2c1` [Example 28, 2-(3,5-di-tert-butyl-4-hydroxyphenyl)-5,7-dimethoxyquinazolin-4(3H)-one] has a melting point of 229.7 to 230.5 °C. Molecule `COc1cc2cc(-c3cc(C)c(O)c(C)c3)[nH]c(=O)c2c(OC)c1CN1CCOCC1` [Example 51, 3-(4-hydroxy-3,5-dimethylphenyl)-6,8-dimethoxy-7-(morpholinomethyl)isoquinolin-1(2H)-one] has a melting point of 158 to 161 °C. `COc1cc(OC)c2c(=O)[nH]c(-c3cc(C)c(OCC(C)(C)O)c(C)c3)cc2c1` [Example 14, 3-(4-(2-hydroxy-2-methylpropoxy)-3,5-dimethylphenyl)-6,8-dimethoxyisoquinolin-1(2H)-one] gave a melting point of 252 to 254 °C. `COc1cc(OC)c2c(=O)[nH]c(-c3cc(C)c(NC(=O)CO)c(C)c3)nc2c1` [Example 60, N-(4-(5,7-dimethoxy-4-oxo-3,4-dihydroquinazolin-2-yl)-2,6-dimethylphenyl)-2-hydroxyacetamide] showed a melting point of 190 to 192 °C. `COc1cc(OC)c2c(=O)[nH]c(-c3ccc(O)c(Cl)c3)nc2c1` [Example 32, 2-(3-chloro-4-hydroxyphenyl)-5,7-dimethoxyquinazolin-4(3H)-one] showed a melting point of 279 to 281 °C. For `COc1cc(OC)c2c(=O)[nH]c(-c3ccc(OCCO)c(OC)c3)nc2c1` [Example 57, 2-(4-(2-hydroxyethoxy)-3-methoxyphenyl)-5,7-dimethoxyquinazolin-4(3H)-one], the melting point was 246 to 248 °C. Molecule `COc1cc(OC)c2c(=O)[nH]c(-c3ccncc3)nc2c1` (as salt: hydrochloride) [Example 33, 5,7-dimethoxy-2-(pyridin-4-yl)quinazolin-4(3H)-one] has a melting point of 294 to 295 °C. For `NC(=O)COc1ccc(-c2nc3ccccc3c(=O)[nH]2)cc1` [Example 41, 2-(4-(4-oxo-3,4-dihydroquinazolin-2-yl)phenoxy)acetamide], the melting point was 277.5 to 278.5 °C. With `CC(=O)Nc1ccc2nc(-c3cc(C)c(O)c(C)c3)[nH]c(=O)c2c1` [Example 54, N-(2-(4-hydroxy-3,5-dimethylphenyl)-4-oxo-3,4-dihydroquinazolin-6-yl)acetamide] the melting point was 336.5 °C (dec.). With `COc1cc(OC)c2c(=O)[nH]c(-c3cc(C)c(OC)c(C)c3)cc2n1` [Example 63, 2,4-dimethoxy-7-(4-methoxy-3,5-dimethylphenyl)-1,6-naphthyridin-5(6H)-one] the melting point was 262 to 263 °C (dec.). `COc1cc(OC)c2c(=O)[nH]c(-c3cc(C)c(OCC(=O)O)c(C)c3)nc2c1` [Example 64, 2-(4-(5,7-dimethoxy-4-oxo-3,4-dihydroquinazolin-2-yl)-2,6-dimethylphenoxy)acetic acid] gave a melting point of 270 to 272 °C.
